According to EP0714404B1, “ANTI-INFLAMMATORY PEPTIDES” (CURATIVE TECHNOLOGIES, INC., priority 1993, dated 1995):
Like-named read-outs stand apart in the source and are kept apart here. Residues, ends and D or L forms follow the SMILES beside them.

Test system: Arachidonic Acid Induced Inflammation
Type: in vivo, mice
Conditions: for % Reduction of Ear Swelling / Ear Thickness: sc minipump
Procedure: The anti-inflammatory properties of CT-112 (SEQ. ID NO: 1) were assessed using a standardized assay for anti-inflammatory activity, i.e., the mouse ear model in which arachidonic acid (AA) is used to induce an inflammatory reaction (Young et al., 1984, J. Invest. Dermatol. 82:367-371; Doherty, et al., 1988, J. Invest. Dermatol. 91:298-302).
Female mice (C57BL/6UAF, Charles River Breeding Laboratories, approximately 15-18 g) were obtained and acclimated for 2 weeks prior to use. The animals were approximately 14 weeks old at the start of the study.
To prepare minipumps for implantation, CT-112 (SEQ. ID NO: 1) was dissolved in PBS. The material was loaded into Alzet minipumps set to deliver 0.05 (5 animals), 0.1 (10 animals), 1 (10 animals), or 2.5 (5 animals) mg of CT-112 (SEQ. ID NO: 1) per animal per day. Minipumps for implantation into control animals contained only PBS. As a positive control, one set of 10 mice received 100 mg/kg of phenidone, a potent 5-lipoxygenase inhibitor which acts as an anti-inflammatory agent, 15 min prior to challenge with AA.
For subcutaneous implantation of minipumps, animals were anesthetized with Ketamine/Xylazine. The Ketamine (Aveco Lot #440140) was injected at 80 mg/kg and the Xylazine (Rugby Laboratories Lot #26040-B) at 16 mg/kg and the Alzet pumps were implanted subcutaneously in the dorsothoracic area. Animals were allowed to recover and then housed and given food and water ad libitum for 5 days.
On the sixth day following pump implantation, 0.01 ml of AA was applied to the inner and outer surfaces of the right ear by means of an automatic microliter pipette. One hr following AA application, the mice were sacrificed and ear thickness was measured with a Mitutoyo No. 7300 Gauge Caliper. The left ears were also measured as an internal control.
Mice were implanted with Alzet mini-pumps set to deliver 60 mg/kg/day for either 7, 3, or 1 days. A separate group of 5 mice received 3 intraperitoneal injections of CT-112 (60 mg/kg/injection) at 24, 1 and 0.25 hr prior to AA challenge. CT-112 (SEQ. ID NO: 1) was prepared for injection by dissolving the compound in Dulbecco's PBS to give a final CT-112 (SEQ. ID NO: 1) concentration of 5 mg/ml. The control mice were implanted with Alzet minipumps that delivered PBS for 7 days. The AA challenge was the same as described supra in Example 7.
Administration of CT-112 (SEQ. ID NO: 1) (60 mg/kg/injection) via multiple intraperitoneal injections was performed at the following times prior to AA challenge: • a) 6, 3, 1 and 0.25 hr; • b) 3, 1 and 0.25 hr; or • c) 1 and 0.25 hr.
In addition, the effect of a single administration of CT-112 (SEQ. ID NO: 1) (60 mg/kg) by intraperitoneal injection was performed at either 1 or 3 hr prior to AA challenge. Control mice had Alzet minipumps implanted to deliver PBS for 7 days prior to AA challenge. The AA challenge was the same as described supra in Example 7. The results of the multiple dosing regimens and the 1 hr and 3 hr single dosing regimens were compared to the anti-inflammatory activity of CT-112 (SEQ. ID NO: 1) delivered via Alzet minipump set to deliver 60 mg/kg/day for 7 days using 5 animals per treatment.
In a separate experiment, the effect of multiple intraperitoneal injections of CT-112 (SEQ. ID NO: 1) at either 6, 3, 1 and 0.25 hr, or 16, 3, 1 and 0.25 hr prior to AA challenge was assessed. The results of both multi-dosing regimens were compared to both phenidone (100 mg/kg administered 15 min prior to AA challenge) and CT-112 (SEQ. ID NO: 1) administered via Alzet mini-pump (60 mg/kg/day for 7 days). For this latter study, the number of animals receiving the single injection of CT-112 (SEQ. ID NO: 1) was increased from 5 to 10.
Administration to mice of CT-112 (SEQ. ID NO: 1) (60 mg/kg/injection) via multiple subcutaneous injections prior to AA challenge was performed at: • a) 6, 3, 1 and 0.25 hr; • b) 3, 1 and 0.25 hr; or • c) 1 and 0.25 hr. […]

[1] = 0.05 mg/animal/day, AA on sixth day

## CC(C)[C@H](NC(=O)[C@H](CCC(N)=O)NC(=O)[C@H](CO)NC(=O)[C@@H](NC(=O)[C@@H](N)[C@@H](C)O)[C@@H](C)O)C(=O)N[C@@H](CCCNC(=N)N)C(=O)N1CCC[C@H]1C(=O)N[C@@H](CCCNC(=N)N)C(=O)O [CT-112, Thr-Thr-Ser-Gln-Val-Arg-Pro-Arg] (H-TTSQVRPR-OH)
[1]
  % Reduction of Ear Swelling: 43.1%
  Ear Thickness: 0.01577 ± 0.00155 (5) in
0.1 mg/animal/day
  % Reduction of Ear Swelling: 43.1%
  Ear Thickness: 0.01577 ± 0.00191 (10) in
1.0 mg/animal/day
  % Reduction of Ear Swelling: 89.0%
  Ear Thickness: 0.01128 ± 0.00291 (10) in
2.5 mg/animal/day
  % Reduction of Ear Swelling: 95.6%
  Ear Thickness: 0.0106 ± 0.00175 (5) in
Table III, 1-day pump, 60 mg/kg/day
  Thickness Difference (Left-Right): -0.00074 ± 0.00119 in
Table III, 3-day pump, 60 mg/kg/day
  Thickness Difference (Left-Right): -0.00115 ± 0.00058 in
Table III, 7-day pump, 60 mg/kg/day
  Thickness Difference (Left-Right): -0.00051 ± 0.00116 in
Table III, ip 60 mg/kg/injection at 24, 1 and 0.25 hr prior to AA
  Thickness Difference (Left-Right): 0.00226 ± 0.00124 in
Table IV, 7-day pump, 60 mg/kg/day
  Thickness Difference (Left-Right): 0.00033 ± 0.00065 in
Table IV, ip 60 mg/kg/injection at 1 and 0.25 hr prior to AA
  Thickness Difference (Left-Right): 0.00192 ± 0.00148 in
Table IV, ip 60 mg/kg/injection at 3, 1 and 0.25 hr prior to AA
  Thickness Difference (Left-Right): 0.00141 ± 0.00138 in
Table IV, ip 60 mg/kg/injection at 6, 3, 1 and 0.25 hr prior to AA
  Thickness Difference (Left-Right): 0.00144 ± 0.00126 in
Table IV, single ip 60 mg/kg 1 hr prior to AA
  Thickness Difference (Left-Right): 0.00308 ± 0.00189 in
Table IV, single ip 60 mg/kg 3 hr prior to AA
  Thickness Difference (Left-Right): 0.00116 ± 0.001 in
Table V, 7-day pump, 60 mg/kg/day
  Thickness Difference (Left-Right): -0.00003 ± 0.0012(5) in
Table V, ip injections at 6, 3, 1 and 0.25 hr prior to AA
  Thickness Difference (Left-Right): 0.00249 ± 0.0017(10) in
Table V, ip injections at 16, 3, 1 and 0.25 hr prior to AA
  Thickness Difference (Left-Right): 0.00283 ± 0.00218(10) in
Table VI, 7-day pump, 60 mg/kg/day
  Thickness Difference (Left-Right): 0.00083 ± 0.00084 in
Table VI, sc 60 mg/kg/injection at 1 and 0.25 hr prior to AA
  Thickness Difference (Left-Right): 0.00195 ± 0.00131 in
Table VI, sc 60 mg/kg/injection at 3, 1 and 0.25 hr prior to AA
  Thickness Difference (Left-Right): 0.00193 ± 0.0007 in
Table VI, sc 60 mg/kg/injection at 6, 3, 1 and 0.25 hr prior to AA
  Thickness Difference (Left-Right): 0.00147 ± 0.00041 in
Table VI, single sc 60 mg/kg 1 hr prior to AA
  Thickness Difference (Left-Right): 0.00174 ± 0.00128 in
Table VI, single sc 60 mg/kg 3 hr prior to AA
  Thickness Difference (Left-Right): 0.00213 ± 0.00089 in
Table VII, 3 day pump, 60 mg/kg/day
  Thickness Difference (Left-Right): 0.00127 ± 0.00128 in
Table VII, single ip 3 hr prior to AA
  Thickness Difference (Left-Right): 0.00242 ± 0.00187 in
Table VII, single sc 1 hr prior to AA
  Thickness Difference (Left-Right): 0.00214 ± 0.00122 in
Table VII, single sc 3 hr prior to AA
  Thickness Difference (Left-Right): 0.00243 ± 0.00107 in
Table VII, single sc 6 hr prior to AA
  Thickness Difference (Left-Right): 0.00117 ± 0.00066 in
Table VII, single sc -.25 (hr) prior to AA
  Thickness Difference (Left-Right): 0.00252 ± 0.00128 in
Table VIII, 3 day pump, 60 mg/kg/day
  Thickness Difference (Left-Right): 0.00058 ± 0.00086 in
Table VIII, po 200 mg/kg/gavage at 1 and 0.25 hr prior to AA
  Thickness Difference (Left-Right): 0.00241 ± 0.00124 in
Table VIII, po 200 mg/kg/gavage at 3, 1 and 0.25 hr prior to AA
  Thickness Difference (Left-Right): 0.0028 ± 0.00114 in
Table VIII, po 200 mg/kg/gavage at 6, 3, 1 and 0.25 hr prior to AA
  Thickness Difference (Left-Right): 0.00134 ± 0.00257 in
Table VIII, single gavage 200 mg/kg 1 hr prior to AA
  Thickness Difference (Left-Right): 0.00139 ± 0.00122 in
Table VIII, single gavage 200 mg/kg 3 hr prior to AA
  Thickness Difference (Left-Right): 0.00031 ± 0.00198 in
Table XI, 6 mg/kg/day, minipump, AA three days after implantation
  Thickness Difference (Left-Right): 0.00381 ± 0.00066 in
Table XI, 60 mg/kg/day, minipump, AA three days after implantation
  Thickness Difference (Left-Right): 0.00095 ± 0.00064 in
Table XIII, 24 hr via Alzet pump, 60 mg/kg/day
  Thickness Difference (Left-Right): 0.00132 ± 0.00086 in
Table XIV, 24 hr via Alzet pump, 60 mg/kg/day
  Difference Treatment (Left - Right): 0.00134 ± 0.00044 in
Table XV, 24 hr via Alzet pump, 60 mg/kg/day
  Thickness Difference (Left-Right): 0.00154 ± 0.00092 in
mouse, in vivo, 6 mg/kg/day
  % Inhibition of Inflammation: 40.8%
mouse, in vivo, 60 mg/kg, 3 h
  % Inhibition of Inflammation: 78.5%
mouse, in vivo, 200 mg/kg, 1 h
  % Inhibition of Inflammation: 72.3%
mouse, in vivo, 200 mg/kg, 3 h
  % Inhibition of Inflammation: 93.8%
mouse, in vivo, ip, 60 mg/kg
  % Inhibition of Inflammation: 62%
mouse, in vivo, ip, 3 h
  % Inhibition of Inflammation: 37.2%
mouse, in vivo, po, 200 mg/kg
  inhibition of the inflammatory process: 52-94%
mouse, in vivo, sc
  % Inhibition of Inflammation: 34.7%
mouse, in vivo, sc, 60 mg/kg, 1 h
  % Inhibition of Inflammation: 71.8%
mouse, in vivo, sc, 60 mg/kg, 3 h
  % Inhibition of Inflammation: 65.5%
mouse, in vivo, sc, 1 h
  % Inhibition of Inflammation: 44.5%
mouse, in vivo, sc, 3 h
  % Inhibition of Inflammation: 36.9%
mouse, in vivo, sc, 6 h
  % Inhibition of Inflammation: 69.6%
Multiple IP injections at 6, 3, 1 and 0.25 hr or 16, 3, 1 and 0.25 hr prior to AA
  reduction in inflammation: 56-61%
Subcutaneous injection, 60 mg/kg
  duration of activity: greater than 6 hr
Subcutaneous injection, all multi-dosing and single-dosing regimens, 60 mg/kg/injection
  inhibition of the inflammatory process: approximately 70%
